Legend:
RAW264.7 = experiment: Antiinflammatory activity in mouse RAW264.7 cells assessed as inhibition of LPS-induced nitric oxide production after 24 hrs by Griess assay; assay type: functional, cell-based; conditions: RAW264.7, 24 h
[1] = Cytotoxicity against mouse RAW264.7 cells assessed as survival rate at 200 uM after 48 hrs by MTT assay in absence of LPS relative to control; assay type: cell-based; conditions: read-out: Survival
[2] = Cytotoxicity against mouse RAW264.7 cells assessed as survival rate at 200 uM after 48 hrs by MTT assay in presence of LPS relative to control; assay type: cell-based; conditions: read-out: Survival

| Structure (SMILES) | IC50 (RAW264.7) [µM] | viability at 48 h, 200 µM [1] [%] | viability at 48 h, 200 µM [2] [%] |
| --- | --- | --- | --- |
| COC1=CC2(C=C(OC)C1=O)[C@@H](CO)[C@H](c1ccc(O)c(OC)c1)O[C@H]2[C@H](O)CO | 5.6 | 99 | 90 |
| C[C@@H]1C[C@H]2[C@@H]3CCC4=CC(=O)C=C[C@]4(C)[C@@]3(F)[C@@H](O)C[C@]2(C)[C@@]1(O)C(=O)CO [DEXAMETHASONE] | 0.63 | 91 | 100 |
| COC1=CC2(C=C(OC)C1=O)[C@H](CO)[C@@H](c1cc(OC)c(O)c(OC)c1)O[C@@H]2[C@@H](O)CO | 15.1 | 101 | 109 |
| COC1=CC2(C=C(OC)C1=O)[C@@H](CO)[C@H](c1cc(OC)c(O)c(OC)c1)O[C@H]2[C@H](O)CO | 4.3 | 102 | 111 |
| COC1=CC2(C=C(OC)C1=O)[C@H](CO)[C@@H](c1ccc(O)c(OC)c1)O[C@@H]2[C@@H](O)CO | 17.9 | 98 | 104 |

Source: ChEMBL document CHEMBL3593223, “Neolignans with a Rare 2-Oxaspiro[4.5]deca-6,9-dien-8-one Motif from the Stem Bark of Cinnamomum subavenium” (J Nat Prod, 2015)
